Patent publication US10206907B2, “Compounds useful for the treatment of degenerative and inflammatory diseases” (GALAPAGOS NV, priority 2008, dated 2019)

Experiments:
[1] = biological target: Recombinant human JAK2 catalytic domain (Homo sapiens (Human), UniProt O60674); assay: JAK2 inhibition assay; assay type: biochemical; conditions: semi-quantitative score
Summary of the method: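 Activity was taken as vehicle cpm minus cpm with 10 μM staurosporine, and inhibition was expressed on that scale. Incubation was 90 min at 30 °C, followed by acid quench, phosphoric acid washes and Microscint counting. Compounds were tested as dose series to obtain IC50.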

[2] = biological target: Recombinant human JAK1 catalytic domain (Homo sapiens (Human), UniProt P23458); assay: JAK1 inhibition assay; assay type: biochemical; conditions: semi-quantitative score
Sequence of Recombinant human JAK1 catalytic domain (P23458 850-1154): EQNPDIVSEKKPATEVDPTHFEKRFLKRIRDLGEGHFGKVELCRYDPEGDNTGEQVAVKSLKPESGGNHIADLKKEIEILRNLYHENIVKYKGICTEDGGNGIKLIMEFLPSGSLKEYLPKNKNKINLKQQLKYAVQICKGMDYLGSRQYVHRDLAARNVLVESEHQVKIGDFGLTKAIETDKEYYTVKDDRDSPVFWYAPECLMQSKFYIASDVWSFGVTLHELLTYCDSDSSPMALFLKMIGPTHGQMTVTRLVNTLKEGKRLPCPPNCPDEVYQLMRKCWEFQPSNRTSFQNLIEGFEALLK
Summary of the method: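 IC50 values come from dose-response series, with each point expressed as percent inhibition of cpm. Vehicle sets full activity and 10 μM staurosporine sets background. Incorporated radioactivity counted by scintillation after washing with 75 mM phosphoric acid.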

MMP13 in SW1353 cells = assay: OSM/IL-1β signaling assay (MMP13 levels in SW1353 cells); assay type: cell-based; conditions: Homo sapiens; SW1353 cells, OSM and IL-1β triggered, MMP13 levels 48 hours after triggering; read-out: MMP13 EC50;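 also: secreted MMP13 captured by antibody, activated with APMA and its activity read by fluorescence, inhibition scaled between vehicle-treated triggered wells (0%) and untriggered wells (100%)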
[3] = biological target: Recombinant human TYK2 catalytic domain (Homo sapiens (Human), UniProt P29597); assay: TYK2 inhibition assay; assay type: biochemical; conditions: semi-quantitative score
Sequence of Recombinant human TYK2 catalytic domain (P29597 871-1187): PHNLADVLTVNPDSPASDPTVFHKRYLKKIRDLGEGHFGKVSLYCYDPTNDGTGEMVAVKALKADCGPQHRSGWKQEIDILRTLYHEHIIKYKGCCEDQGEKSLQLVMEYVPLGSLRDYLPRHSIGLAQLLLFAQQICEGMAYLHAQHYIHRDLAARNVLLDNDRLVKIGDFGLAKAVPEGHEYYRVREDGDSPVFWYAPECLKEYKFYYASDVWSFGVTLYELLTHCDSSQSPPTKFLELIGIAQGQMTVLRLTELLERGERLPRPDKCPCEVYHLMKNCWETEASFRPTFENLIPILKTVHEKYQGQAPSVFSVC
Method: After 90 min at 30° C., reactions were stopped by adding of 25 μL/well of 150 mM phosphoric acid. […] Plates were washed 6 times with 300 μL per well of a 75 mM phosphoric acid solution and the bottom of the plates was sealed. 40 μL/well of Microscint-20 was added, the top of the plates was sealed and readout was performed using the Topcount (Perkin Elmer). Kinase activity was calculated by subtracting counts per minute (cpm) obtained in the presence of a positive control inhibitor (10 μM staurosporine) from cpm obtained in the presence of vehicle. The ability of a test compound to inhibit this activity was determined as: Percentage inhibition=((cpm determined for sample with test compound present−cpm determined for sample with positive control inhibitor) divided by (cpm determined in the presence of vehicle−cpm determined for sample with positive control inhibitor))*100%.
Dose dilution series were prepared for the compounds enabling the testing of dose-response effects in the TYK2 assay and the calculation of the IC50 for each compound.

[4] = Microsomal stability, rat liver microsomes; assay type: in vitro ADME; conditions: percentage of compound remaining after 60 minutes, 3 μM compound
Summary of the method: (§1)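 Percent parent remaining after 60 min was determined by LCMS against a time-zero sample quenched before microsome addition. Incubations ran at 37°C with liver microsomes and a G6PDH-based NADPH-regenerating cofactor mix. Quench was MeOH or ACN (1:1).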

[5] = system: JAK-STAT signalling in HeLa cells; assay: JAK-STAT signalling assay (OSM-triggered pSTAT1(2)-luciferase reporter in HeLa cells); assay type: cell-based; conditions: Homo sapiens; HeLa cells, OSM-triggered pSTAT1(2)-luciferase reporter; read-out: STAT signalling EC50
Summary of the method: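 Read-out is oncostatin M–driven pSTAT1(2)-luciferase activity, corrected by co-transfected LacZ β-galactosidase, in transiently transfected HeLa cells cultured overnight at 37 °C, 10% CO2. Inhibition percentages against positive and negative controls were plotted across doses to derive EC50.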

[6] = Microsomal stability, human liver microsomes; assay type: in vitro ADME; conditions: percentage of compound remaining after 60 minutes, 3 μM compound
Summary of the method: as §1

[7] = Caco2 permeability (bi-directional); assay type: in vitro ADME, human; conditions: human, pH 7.4; for Papp A→B at 1 h, 10 µM: Caco-2, apical to basolateral, read-out: Papp (A2B); for efflux ratio at 1 h, 10 µM: Caco-2, ratio of PappB>A/PappA>B
Summary of the method: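 Compound concentrations in both chambers were measured by LC-MS/MS after 1 h incubation at 37 °C on an orbital shaker. Efflux ratio is PappB>A over PappA>B. Lucifer Yellow (50 μM in donor) confirmed layer integrity, with permeability of ≤100 nm/s required.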

[8] = biological target: Recombinant human JAK3 catalytic domain (Homo sapiens (Human), UniProt P52333); assay: JAK3 inhibition assay; assay type: biochemical; conditions: semi-quantitative score
Sequence of Recombinant human JAK3 catalytic domain (P52333 781-1124): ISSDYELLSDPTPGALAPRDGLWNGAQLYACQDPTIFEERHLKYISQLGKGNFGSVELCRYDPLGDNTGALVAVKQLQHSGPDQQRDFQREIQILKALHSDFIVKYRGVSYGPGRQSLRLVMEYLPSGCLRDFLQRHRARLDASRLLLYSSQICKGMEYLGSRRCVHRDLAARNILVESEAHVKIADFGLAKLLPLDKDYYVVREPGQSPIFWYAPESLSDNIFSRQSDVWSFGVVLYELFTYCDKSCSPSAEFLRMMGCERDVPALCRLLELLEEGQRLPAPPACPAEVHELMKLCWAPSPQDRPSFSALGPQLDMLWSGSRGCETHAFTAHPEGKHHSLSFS

Sequence of Recombinant human JAK2 catalytic domain (O60674 808-1132): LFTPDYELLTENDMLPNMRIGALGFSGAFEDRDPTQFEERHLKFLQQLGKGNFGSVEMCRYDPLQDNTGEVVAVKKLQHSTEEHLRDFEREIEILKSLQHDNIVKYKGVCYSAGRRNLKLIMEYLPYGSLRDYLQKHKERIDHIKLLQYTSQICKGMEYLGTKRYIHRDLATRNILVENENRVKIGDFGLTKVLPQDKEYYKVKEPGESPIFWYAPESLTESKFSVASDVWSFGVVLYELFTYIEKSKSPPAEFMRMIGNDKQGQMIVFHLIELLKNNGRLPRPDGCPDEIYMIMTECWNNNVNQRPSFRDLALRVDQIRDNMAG

SMILES | IC50 [1] [nM] | IC50 [2] [nM] | EC50 (MMP13 in SW1353 cells) [nM] | IC50 [3] [nM] | Microsomal Stability Rat (%) [4] | EC50 [5] [nM] | Microsomal Stability Human (%) [6] | Papp A→B at 1 h, 10 µM [7] [×10⁻⁶ cm/s] | efflux ratio at 1 h, 10 µM [7] | IC50 [8] [nM]
O=C(Nc1nc2cccc(-c3ccc(C(=O)N4CCC(F)(F)C4)cc3)n2n1)C1CC1 [Compound 271, Cyclopropanecarboxylic acid (5-[4-(3,3-difluoro-pyrrolidine-1-carbonyl)-phenyl]-[1,2,4]triazolo[1,5-a]pyridin-2-yl}-amide] | < 100 | < 100 | 501 to 1000 | < 100 | **** (**** 76-100) | 101 to 500 | **** (**** 76-100) | 4 | 13 | 101 to 500
O=C(Nc1nc2cccc(-c3ccc(CC(=O)N4CC(F)(F)C4)cc3)n2n1)C1CC1 [Compound 317, Cyclopropanecarboxylic acid (5-{4-[2-(3,3-difluoro-azetidin-1-yl)-2-oxo-ethyl]-phenyl}-[1,2,4]triazolo[1,5-a]pyridin-2-yl)-amide] | < 100 | < 100 | > 1000 | 101 to 500 | *** (*** 51-75) | 501 to 1000 | **** (**** 76-100) | 4.3 | 10.1 | > 1000
Cc1n[nH]c(C)c1CCOc1ccc(-c2cccc3nc(NC(=O)C4CC4)nn23)cc1 [Compound 51] | < 100 | < 100 | > 1000 | 501 to 1000 | * (* 0-25) | 101 to 500 | * (* 0-25) | 10.9 | 3.64 | 501 to 1000
O=C(Nc1nc2cccc(-c3ccc(C(=O)N4CCC(O)(Cc5ccccc5)CC4)cc3)n2n1)C1CC1 [Compound 156, N-(5-(4-(4-benzyl-4-hydroxypiperidine-1-carbonyl)phenyl)-[1,2,4]triazolo[1,5-a]pyridin-2-yl)cyclopropanecarboxamide] | < 100 | < 100 | – | 101 to 500 | ** (** 26-50) | 101 to 500 | ** (** 26-50) | 4.1 | 11.5 | 101 to 500
O=C(CCc1ccccc1)Nc1ccc(-c2cccc3nc(NC(=O)C4CC4)nn23)cc1 [Compound 109, N-(5-(4-(3-phenylpropanamido)phenyl)-[1,2,4]triazolo[1,5-a]pyridin-2-yl)cyclopropanecarboxamide] | < 100 | < 100 | 501 to 1000 | > 1000 | * (* 0-25) | 501 to 1000 | * (* 0-25) | 19 | 2.5 | 501 to 1000
O=C(Nc1nc2cccc(-c3ccc(NS(=O)(=O)c4ccccc4F)cc3)n2n1)C1CC1 [Compound 54, N-(5-(4-(2-fluorophenylsulfonamido)phenyl)-[1,2,4]triazolo[1,5-a]pyridin-2-yl)cyclopropanecarboxamide] | < 100 | < 100 | > 1000 | 101 to 500 | *** (*** 51-75) | > 1000 | **** (**** 76-100) | – | – | > 1000
O=C(Nc1nc2cccc(-c3ccc(C(=O)N4CCc5ccccc5C4)cc3)n2n1)C1CC1 [Compound 58] | 101 to 500 | < 100 | 501 to 1000 | > 1000 | * (* 0-25) | > 1000 | * (* 0-25) | – | – | > 1000
O=C(Nc1nc2cccc(-c3ccc4c(ccn4Cc4ccccc4)c3)n2n1)C1CC1 [Compound 121, Cyclopropanecarboxylic Acid [5-(1-benzyl-1H-indol-5-yl)-[1,2,4]triazolo[1,5-a]pyridin-2-yl]-amide] | < 100 | < 100 | > 1000 | > 1000 | * (* 0-25) | 501 to 1000 | * (* 0-25) | – | – | 501 to 1000
